Reference: US10165779B2, “Substituted pyrazolylpyrazole derivative and use of same as herbicide” (KYOYU AGRI CO., LTD., priority 2015, dated 2019)

Columns and labels:
Type in all cases: in vivo
Oryza sativa = test: Paddy herbicidal activity test, phytotoxicity to transplanted rice; conditions: rice transplanted at 2.0 leaf stage, 30 days
Protocol: (§1) After treating for 30 days in a glass greenhouse at an average atmospheric temperature of 30° C., the herbicidal efficacy thereof was investigated. Evaluation of herbicidal efficacy was carried out by comparing growth inhibition rate (%) with an untreated group, while evaluation of phytotoxicity was carried out by comparing growth inhibition rate (%) with the state of a complete eradication group, and were evaluated at 11 levels indicated below. […] 2: 20% to less than 30% 3: 30% to less than 40% 4: 40% to less than 50% 5: 50% to less than 60% 6: 60% to less than 70% 7: 70% to less than 80% […]

Echinochloa crus-galli = test: Paddy herbicidal activity test; conditions: irrigated paddy pot, treated at 3.5 leaf stage of Echinochloa crus-galli, 30 days
Protocol: as §1

Monochoria vaginalis = test: Paddy herbicidal activity test; conditions: irrigated paddy pot, 30 days
Protocol: as §1

Scirpus juncoides = test: Paddy herbicidal activity test; conditions: irrigated paddy pot, 30 days
Protocol: as §1

Amaranthus retroflexus [1] = test: Farming soil treatment test; conditions: soil surface spray prior to weed growth, 30 days
Protocol: (§2) Field soil was filled into a 1/6000 are pot followed by seeding with Digitaria cilaris, Chenopodium album and Amaranthus retroflexus and covering with soil.
(§3) Wettable powders of compounds of formula (I) shown in Table 1 prepared in compliance with the preparation examples were diluted. with water to the prescribed amount of chemical and uniformly sprayed onto each soil surface layer using 100 liters of sprayed water per 10 are prior to weed growth following seeding.
(§4) After treating for 30 days in a glass greenhouse at an average atmospheric temperature of 30° C., the herbicidal efficacy thereof was investigated.
(§5) Evaluation of herbicidal efficacy was carried out in the same manner as the above-mentioned Test Example 1.

Chenopodium album [2] = test: Farming soil treatment test; conditions: soil surface spray prior to weed growth, 30 days
Protocol: as §2, §3, §4, §5

Digitaria ciliaris [3] = test: Farming soil treatment test; conditions: soil surface spray prior to weed growth, 30 days
Protocol: as §2, §3, §4, §5

Amaranthus retroflexus [4] = test: Weed foliar treatment test (Test 3, 1.0 to 2.0 leaf stage); conditions: foliar spray at 1.0 to 2.0 leaf stage of Digitaria ciliaris, 3 weeks
Protocol: (§6) Soil was filled into a 1/6000 are pot followed by seeding with Digitaria ciliaris, Chenopodium album and Amaranthus retroflexus, covering with soil, and cultivating in a glass greenhouse at an average atmospheric temperature of 25° C.
(§7) Wettable powders of Target Compound (I) shown in Table 1 prepared in compliance with the preparation examples were diluted with water to the prescribed amount of chemical and uniformly sprayed onto the weeds using 150 liters of sprayed water per 10 are when Digitaria ciliaris had grown to the 1.0 to 2.0 leaf stage.
(§8) After treating for 3 weeks in a glass greenhouse at an average atmospheric temperature of 25° C., the herbicidal efficacy thereof was investigated.
as §5

Chenopodium album [5] = test: as above; conditions: foliar spray at 1.0 to 2.0 leaf stage of Digitaria ciliaris, 3 weeks
Protocol: as §6, §7, §8, §5

Digitaria ciliaris [6] = test: as above; conditions: foliar spray at 1.0 to 2.0 leaf stage of Digitaria ciliaris, 3 weeks
Protocol: as §6, §7, §8, §5

Digitaria ciliaris [7] = test: Weed foliar treatment test (Test 4, 4.0 to 5.0 leaf stage); conditions: 10 g a.i./10a; foliar spray at 4.0 to 5.0 leaf stage of Digitaria ciliaris (plant height 10 cm to 15 cm); 20 days
Protocol: (§9) Field soil was filled into a 1/4500 are pot followed by seeding with Digitaria ciliaris and Galinsoga parviflora, covering with soil and cultivating in a glass greenhouse at an average atmospheric temperature of 25° C.
as §7, with “100” for “150”, “4.0” for “1.0”, “5.0” for “2.0”, “stage (plant height: 10 cm to 15 cm).” for “stage.”
(§10) After treating for 20 days in a glass greenhouse at an average atmospheric temperature of 25° C., the herbicidal efficacy thereof was investigated.
as §5

Galinsoga parviflora = test: as above; conditions: 10 g a.i./10a; foliar spray at 4.0 to 5.0 leaf stage of Digitaria ciliaris; 20 days
Protocol: as §9
as §7, with “100” for “150”, “4.0” for “1.0”, “5.0” for “2.0”, “stage (plant height: 10 cm to 15 cm).” for “stage.”
as §10, §5

Structure (SMILES) | phytotoxicity Oryza sativa (Oryza sativa; 1g a.i./10a) | phytotoxicity Oryza sativa (Oryza sativa; 5g a.i./10a) | herbicidal efficacy Echinochloa crus-galli (Echinochloa crus-galli; 1g a.i./10a) | herbicidal efficacy Echinochloa crus-galli (Echinochloa crus-galli; 5g a.i./10a) | herbicidal efficacy Monochoria vaginalis (Monochoria vaginalis; 1g a.i./10a) | herbicidal efficacy Monochoria vaginalis (Monochoria vaginalis; 5g a.i./10a) | herbicidal efficacy Scirpus juncoides (Scirpus juncoides; 1g a.i./10a) | herbicidal efficacy Scirpus juncoides (Scirpus juncoides; 5g a.i./10a) | herbicidal efficacy Amaranthus retroflexus (Amaranthus retroflexus [1]; 5g a.i./10a) | herbicidal efficacy Amaranthus retroflexus (Amaranthus retroflexus [1]; 10g a.i./10a) | herbicidal efficacy Chenopodium album (Chenopodium album [2]; 5g a.i./10a) | herbicidal efficacy Chenopodium album (Chenopodium album [2]; 10g a.i./10a) | herbicidal efficacy Digitaria ciliaris (Digitaria ciliaris [3]; 5g a.i./10a) | herbicidal efficacy Digitaria ciliaris (Digitaria ciliaris [3]; 10g a.i./10a) | herbicidal efficacy Amaranthus retroflexus (Amaranthus retroflexus [4]; 5g a.i./10a) | herbicidal efficacy Amaranthus retroflexus (Amaranthus retroflexus [4]; 10g a.i./10a) | herbicidal efficacy Chenopodium album (Chenopodium album [5]; 5g a.i./10a) | herbicidal efficacy Chenopodium album (Chenopodium album [5]; 10g a.i./10a) | herbicidal efficacy Digitaria ciliaris (Digitaria ciliaris [7]) | herbicidal efficacy Galinsoga parviflora (Galinsoga parviflora) | further results
CCOC(=O)Nc1c([N+](=O)[O-])cnn1-c1nn2c(c1Cl)CCCC2 [Control agent 2.28, reference compound] | 0 (0 (exponent): 0% to less than 10% (growth inhibition rate)) | 1 (1: 10% to less than 20%) | – | – | – | – | – | – | – | – | – | – | – | – | – | – | – | – | – | – | –
CCOC(=O)N(C(=O)OCC)c1c(C#N)cnn1-c1nn2c(c1Cl)CCCC2 [Compound 6] | 0 (0 (exponent): 0% to less than 10% (growth inhibition rate)) | 1 (1: 10% to less than 20%) | 10 (10: 100%) | 10 (10: 100%) | 10 (10: 100%) | 10 (10: 100%) | 9 (9: 90% to less than 100%) | 10 (10: 100%) | 10 (10: 100%) | 10 (10: 100%) | 9 (9: 90% to less than 100%) | 10 (10: 100%) | 10 (10: 100%) | 10 (10: 100%) | 10 (10: 100%) | 10 (10: 100%) | 10 (10: 100%) | 10 (10: 100%) | 10 (10: 100%) | 10 (10: 100%) | herbicidal efficacy Digitaria ciliaris (Digitaria ciliaris [6]; 5g a.i./10a): 10 (10: 100%); herbicidal efficacy Digitaria ciliaris (Digitaria ciliaris [6]; 10g a.i./10a): 10 (10: 100%)
COC(=O)N(C(=O)OC)c1c([N+](=O)[O-])cnn1-c1nn2c(c1Br)CCCC2 [Compound 5] | 1 (1: 10% to less than 20%) | 1 (1: 10% to less than 20%) | 9 (9: 90% to less than 100%) | 9 (9: 90% to less than 100%) | 10 (10: 100%) | 10 (10: 100%) | 10 (10: 100%) | 10 (10: 100%) | 10 (10: 100%) | 10 (10: 100%) | 10 (10: 100%) | 10 (10: 100%) | 9 (9: 90% to less than 100%) | 9 (9: 90% to less than 100%) | 10 (10: 100%) | 10 (10: 100%) | 10 (10: 100%) | 10 (10: 100%) | 9 (9: 90% to less than 100%) | 10 (10: 100%) | herbicidal efficacy Digitaria ciliaris (Digitaria ciliaris [6]; 5g a.i./10a): 9 (9: 90% to less than 100%); herbicidal efficacy Digitaria ciliaris (Digitaria ciliaris [6]; 10g a.i./10a): 10 (10: 100%)
CCOC(=O)N(C(=O)OCC)c1c(C#N)cnn1-c1nn2c(c1Br)CCCC2 [Compound 8] | 0 (0 (exponent): 0% to less than 10% (growth inhibition rate)) | 1 (1: 10% to less than 20%) | 10 (10: 100%) | 10 (10: 100%) | 10 (10: 100%) | 10 (10: 100%) | 9 (9: 90% to less than 100%) | 9 (9: 90% to less than 100%) | 10 (10: 100%) | 10 (10: 100%) | 9 (9: 90% to less than 100%) | 9 (9: 90% to less than 100%) | 10 (10: 100%) | 10 (10: 100%) | 10 (10: 100%) | 10 (10: 100%) | 10 (10: 100%) | 10 (10: 100%) | 10 (10: 100%) | 10 (10: 100%) | herbicidal efficacy Digitaria ciliaris (Digitaria ciliaris [6]; 5g a.i./10a): 10 (10: 100%); herbicidal efficacy Digitaria ciliaris (Digitaria ciliaris [6]; 10g a.i./10a): 10 (10: 100%)
C=CCOC(=O)N(C(=O)OCC=C)c1c([N+](=O)[O-])cnn1-c1nn2c(c1Cl)CCCC2 [Compound 15] | – | – | – | – | – | – | – | – | – | – | – | – | – | – | – | – | – | – | 10 (10: 100%) | 10 (10: 100%) | –
CC(C)COC(=O)N(C(=O)OCC(C)C)c1c(C#N)cnn1-c1nn2c(c1Cl)CCCC2 [Compound 13] | – | – | – | – | – | – | – | – | – | – | – | – | – | – | – | – | – | – | 10 (10: 100%) | 10 (10: 100%) | –
CCOC(=O)N(C(=O)OC)c1c(C#N)cnn1-c1nn2c(c1Cl)CCCC2 [Compound 1, Methyl N-(3-chloro-4,5,6,7-tetrahydropyrazolo[1,5-a]pyridine-2-yl)-4-cyanopyr azol-5-yl)-N-ethoxycarbonyl Carbamate] | – | – | 9 (9: 90% to less than 100%) | 10 (10: 100%) | 10 (10: 100%) | 10 (10: 100%) | 9 (9: 90% to less than 100%) | 9 (9: 90% to less than 100%) | 9 (9: 90% to less than 100%) | 9 (9: 90% to less than 100%) | 9 (9: 90% to less than 100%) | 10 (10: 100%) | 9 (9: 90% to less than 100%) | 9 (9: 90% to less than 100%) | 10 (10: 100%) | 10 (10: 100%) | 10 (10: 100%) | 10 (10: 100%) | 9 (9: 90% to less than 100%) | 10 (10: 100%) | herbicidal efficacy Digitaria ciliaris (Digitaria ciliaris [6]; 5g a.i./10a): 9 (9: 90% to less than 100%); herbicidal efficacy Digitaria ciliaris (Digitaria ciliaris [6]; 10g a.i./10a): 10 (10: 100%)
CC(C)OC(=O)N(C(=O)OC(C)C)c1c(C#N)cnn1-c1nn2c(c1Cl)CCCC2 [Compound 12] | – | – | – | – | – | – | – | – | – | – | – | – | – | – | – | – | – | – | 10 (10: 100%) | 10 (10: 100%) | –
COC(=O)N(C(=O)OC)c1c([N+](=O)[O-])cnn1-c1nn2c(c1Cl)CCCC2 [Compound 3] | – | – | – | – | – | – | – | – | – | – | – | – | – | – | – | – | – | – | 10 (10: 100%) | 10 (10: 100%) | –
